This passage reports TGI results from PubChem BioAssay (NCI).

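All cell lines were grown in 96-well plates and treated with compound for 48 hours. Definition used: TGI = concentration required for complete inhibition of growth.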

Test systems include NCI-H23 lung; A549 NSCLC; HL-60(TB) leukemia; SF-268 CNS; MDA-N; U251 CNS; HOP-62 NSCLC.
Common to all, as to experiment: NCI-60 cell line screen, 48 h

Turning to `Cc1ccc(S(=O)(=O)NC(=O)NC(Cc2ccc(O)c(O)c2)C(=O)O)cc1` (centres undefined), the TGI with NCI-H23 lung was more than 100 µM; with A549 NSCLC, more than 100 µM; with HL-60(TB) leukemia, more than 100 µM; with SF-268 CNS, 2.8 µM; in the assay with MDA-N, more than 100 µM; in the assay with U251 CNS, more than 100 µM. In the assay with HOP-62 NSCLC, the TGI was more than 100 µM.

Take `Nc1ccc(Oc2ccc(C34CC5CC6C3CC3CC4C(C5)C6(c4ccc(Oc5ccc(N)c(O)c5)cc4)C3)cc2)cc1O`: the TGI was determined as 31.2 µM in the assay on NCI-H23 lung; 12.9 µM with A549 NSCLC; 3.27 µM in the assay with HL-60(TB) leukemia; 29.2 µM in the assay on SF-268 CNS; 14.8 µM with MDA-N; 13.6 µM with U251 CNS. In the assay on HOP-62 NSCLC, this molecule had a TGI of 18.3 µM.

Regarding `COc1ccccc1NC(=O)O/N=C(/Cl)C(C)C`, the TGI with NCI-H23 lung came to 28.8 µM; with A549 NSCLC, 34.4 µM; with HL-60(TB) leukemia, 3.6 µM; in the assay on SF-268 CNS, 32.5 µM; in the assay with MDA-N, 26.8 µM; in the assay with U251 CNS, 30.6 µM. In the assay with HOP-62 NSCLC, this molecule showed a TGI of 17.1 µM.

In the case of `Nn1c(Cc2ccccc2)n[nH]c1=O`, the TGI in the assay on NCI-H23 lung, in the assay with A549 NSCLC, in the assay with HL-60(TB) leukemia, in the assay with SF-268 CNS, in the assay with MDA-N and with U251 CNS was more than 100 µM each time. This molecule also registered a TGI with HOP-62 NSCLC of more than 100 µM.

`COc1ccc(Oc2nc(C#CC(C)(C)O)nc(Oc3ccc(OC)cc3)n2)cc1`: the TGI was 21.8 µM with NCI-H23 lung; 28.4 µM with A549 NSCLC; 3.52 µM with HL-60(TB) leukemia; 28.5 µM in the assay on SF-268 CNS; 21.6 µM in the assay with MDA-N; 15.6 µM with U251 CNS. The same molecule displayed a TGI in the assay on HOP-62 NSCLC of 62.1 µM.

Turning to `C=C(C(=O)OC)c1cc2ccccc2n1S(=O)(=O)c1ccccc1`, the TGI in the assay on NCI-H23 lung was 11.5 µM; in the assay with A549 NSCLC, 31.9 µM; in the assay on HL-60(TB) leukemia it was 10.2 µM; in the assay on SF-268 CNS, 8.22 µM; in the assay on MDA-N, 14 µM; in the assay on U251 CNS, 5.12 µM. In addition, the TGI with HOP-62 NSCLC came to 11.1 µM.

Regarding `Oc1cccc(-c2cn3cc(C(F)(F)F)ccc3n2)c1`, the TGI in the assay on NCI-H23 lung, in the assay on A549 NSCLC, with HL-60(TB) leukemia, in the assay on SF-268 CNS, in the assay on MDA-N and in the assay with U251 CNS was more than 100 µM throughout. This molecule also yielded a TGI in the assay with HOP-62 NSCLC of more than 100 µM.

Take `c1ccc2nc(CCC3CCCCN3)ccc2c1` (centres undefined): the TGI in the assay on NCI-H23 lung, with A549 NSCLC, with HL-60(TB) leukemia, in the assay with SF-268 CNS, in the assay on MDA-N and in the assay with U251 CNS was more than 100 µM throughout. The same molecule displayed a TGI in the assay with HOP-62 NSCLC of more than 100 µM.

With `O=[N+]([O-])c1ccc2c(c1)c(S(=O)(=O)O)cc1nonc12`, the TGI with NCI-H23 lung, in the assay on A549 NSCLC, in the assay on HL-60(TB) leukemia, in the assay with SF-268 CNS, with MDA-N and in the assay with U251 CNS was more than 100 µM throughout. In addition, the TGI with HOP-62 NSCLC was more than 100 µM.

Turning to `CC12CCC(C(Nc3ccccn3)C1=O)C2(C)C` (centres undefined), the TGI in the assay on NCI-H23 lung, in the assay with A549 NSCLC, in the assay with HL-60(TB) leukemia, in the assay on SF-268 CNS, in the assay with MDA-N and in the assay on U251 CNS was more than 100 µM throughout. Also, in the assay on HOP-62 NSCLC, the TGI is more than 100 µM.

`C[C@]1(O)O[C@@H]2OCC[C@@H]2C2=C1C(=O)c1ccccc1C2=O`: the TGI with NCI-H23 lung stood at 31.6 µM; in the assay on A549 NSCLC, 35.2 µM; with HL-60(TB) leukemia, 33.2 µM; in the assay with SF-268 CNS, 26.3 µM; in the assay with MDA-N it was 19.1 µM; in the assay on U251 CNS, 29.8 µM. In the assay on HOP-62 NSCLC, the TGI amounted to 26.7 µM.

`COC(=O)c1cc(C(=CCC[C@H]2CC[C@@]3(C)C(CCC4C3CC[C@@]3(C)C4CC[C@@H]3C(C)CCCC(C)C)C2)c2cc(Cl)c(OC(=O)c3ccccc3)c(C(=O)OC)c2)cc(Cl)c1OC(=O)c1ccccc1` (some centres undefined): the TGI in the assay with NCI-H23 lung, in the assay on A549 NSCLC, in the assay with HL-60(TB) leukemia, in the assay with SF-268 CNS, with MDA-N and in the assay with U251 CNS was more than 10 µM each time. The molecule also showed a TGI in the assay with HOP-62 NSCLC of more than 10 µM.

Consider `O=C(OCCC12CC3CC(CC(C3)C1)C2)c1ccc(NCc2cc(O)ccc2O)cc1`, for which the TGI in the assay with NCI-H23 lung amounted to 3.28 µM; in the assay with A549 NSCLC, 15.7 µM; with HL-60(TB) leukemia, 0.853 µM; in the assay with SF-268 CNS, 12.7 µM; with MDA-N, 3.38 µM; in the assay with U251 CNS, 2.95 µM. The molecule also displayed a TGI in the assay with HOP-62 NSCLC of 13.4 µM.

In the case of `O=C(N/N=C\c1ccccc1)Nc1cccc2ccccc12`, the TGI in the assay on NCI-H23 lung, with A549 NSCLC, in the assay with HL-60(TB) leukemia, with SF-268 CNS, with MDA-N and with U251 CNS was more than 100 µM in each case. The molecule further had a TGI with HOP-62 NSCLC of 37.2 µM.

As for `CC(=O)OCC1OC(O/C=C(\CN=[N+]=[N-])C(C)=O)C(OC(C)=O)C(OC(C)=O)C1OC(C)=O` (centres undefined), the TGI was 25.6 µM with NCI-H23 lung; 46.2 µM in the assay with A549 NSCLC; 5.27 µM with HL-60(TB) leukemia; 56.9 µM with SF-268 CNS; 30 µM in the assay with MDA-N; 26.8 µM with U251 CNS. In the assay on HOP-62 NSCLC, this molecule came in with a TGI of 70.7 µM.

For `Clc1c(C(Cl)(Cl)Cl)nsc1N1CCCCC1`, the TGI in the assay on NCI-H23 lung was 34.7 µM; in the assay with A549 NSCLC, more than 100 µM; with HL-60(TB) leukemia it was 48.2 µM; in the assay on SF-268 CNS, more than 100 µM; in the assay on MDA-N, more than 100 µM; with U251 CNS, more than 100 µM. In the assay on HOP-62 NSCLC, this molecule came in with a TGI of 73.8 µM.

As to `Cc1nc2ccccc2n1Cc1nnc(N)o1`, the TGI in the assay with NCI-H23 lung, with A549 NSCLC, in the assay with HL-60(TB) leukemia, in the assay with SF-268 CNS, in the assay on MDA-N and with U251 CNS was more than 100 µM each time. In the assay on HOP-62 NSCLC, this molecule came in with a TGI of more than 100 µM.

Turning to `CC(=O)N1c2ccccc2C(C)C1c1[nH]c2ccccc2c1C` (centres undefined), the TGI in the assay on NCI-H23 lung is more than 100 µM; in the assay on A549 NSCLC, 83.2 µM; in the assay on HL-60(TB) leukemia, 44.4 µM; in the assay on SF-268 CNS it was 62 µM; in the assay with MDA-N, 50.6 µM; in the assay with U251 CNS it was 51.5 µM. In the assay on HOP-62 NSCLC, this molecule gave a TGI of 36.6 µM.

Take `O=[N+]([O-])c1ccc(Cl)cc1N/N=C/c1cccc2cccnc12`: the TGI in the assay on NCI-H23 lung, in the assay on A549 NSCLC, in the assay with HL-60(TB) leukemia, in the assay with SF-268 CNS, in the assay with MDA-N and in the assay with U251 CNS was more than 100 µM throughout. This molecule also yielded a TGI in the assay with HOP-62 NSCLC of more than 100 µM.

For the molecule `COc1ccc2cc(C(=O)NCCCNC(=O)c3ccc4cc(OC)ccc4c3)ccc2c1`, the TGI in the assay with NCI-H23 lung is more than 100 µM; in the assay with A549 NSCLC, more than 100 µM; in the assay on HL-60(TB) leukemia, more than 100 µM; with SF-268 CNS, more than 100 µM; in the assay on MDA-N, more than 100 µM; in the assay with U251 CNS, more than 85.4 µM. In the assay on HOP-62 NSCLC, this molecule came in with a TGI of 42.1 µM.

On to `c1ccc2c(c1)CC1COc3ccccc3C1O2` (centres undefined), for which the TGI in the assay on NCI-H23 lung, in the assay with A549 NSCLC, in the assay on HL-60(TB) leukemia, in the assay on SF-268 CNS, in the assay with MDA-N and in the assay with U251 CNS was more than 100 µM in each case. In the assay on HOP-62 NSCLC, this molecule showed a TGI of more than 100 µM.

`N=c1c2c(=S)n(-c3ccccc3)c(=S)n(-c3ccccc3)c2nc(SCCN2CCOCC2)n1-c1ccccc1`: the TGI in the assay with NCI-H23 lung was 7.02 µM; in the assay with A549 NSCLC, 3.36 µM; in the assay with HL-60(TB) leukemia it was 3.31 µM; with SF-268 CNS, 4.41 µM; in the assay with MDA-N it was 4.99 µM; with U251 CNS, 3.93 µM. In the assay with HOP-62 NSCLC, this molecule showed a TGI of 4.96 µM.

In the case of `NC(=O)CC(N=C1C(=O)OC(C(O)CO)C1=NC(CC(N)=O)C(=O)O)C(=O)O` (centres undefined), the TGI in the assay on NCI-H23 lung, in the assay on A549 NSCLC, in the assay on HL-60(TB) leukemia, in the assay with SF-268 CNS, in the assay on MDA-N and in the assay on U251 CNS was more than 100 µM in each case. Further, the TGI in the assay with HOP-62 NSCLC was more than 100 µM.

Consider `CC1(C)CCC(=O)NC1CC(=O)CC1NC(=O)CCC1(C)C` (centres undefined), for which the TGI in the assay with NCI-H23 lung, in the assay with A549 NSCLC, in the assay with HL-60(TB) leukemia, in the assay on SF-268 CNS, in the assay with MDA-N and in the assay on U251 CNS was more than 100 µM throughout. The TGI in the assay on HOP-62 NSCLC was more than 100 µM.

Regarding `N#Cc1nc(CCC(c2nc(C#N)c(N)o2)N2C(=O)c3ccccc3C2=O)oc1N` (centres undefined), the TGI in the assay on NCI-H23 lung, with A549 NSCLC, in the assay on HL-60(TB) leukemia, with SF-268 CNS, in the assay on MDA-N and in the assay on U251 CNS was more than 100 µM throughout. The molecule also had a TGI in the assay with HOP-62 NSCLC of more than 100 µM.

Turning to `COc1ccc(-c2cc(-c3cc(F)c(Cl)cc3Cl)on2)cc1OC`, the TGI in the assay on NCI-H23 lung was more than 100 µM; in the assay on A549 NSCLC, more than 100 µM; in the assay with HL-60(TB) leukemia, 63.4 µM; in the assay with SF-268 CNS, more than 100 µM; in the assay with MDA-N, 41 µM; with U251 CNS, more than 100 µM. The molecule also gave a TGI in the assay with HOP-62 NSCLC of more than 100 µM.

For the molecule `Clc1ncc(Cl)c(Cl)n1`, the TGI in the assay on NCI-H23 lung was determined as 42.3 µM; with A549 NSCLC it was 28.8 µM; with HL-60(TB) leukemia, 2.36 µM; with SF-268 CNS, 20.5 µM; in the assay on MDA-N, 11 µM; with U251 CNS, 11.2 µM. In the assay on HOP-62 NSCLC, this molecule came in with a TGI of 39.4 µM.
